Data as given in patent US20240150377A1, “MODULATORS OF CYSTIC FIBROSIS TRANSMEMBRANE CONDUCTANCE REGULATOR” (VERTEX PHARMACEUTICALS INCORPORATED, priority 2020, published 2024).
pEC50: −log10 of the molar value. Read-outs that look alike come from different tables or passages of the source. Each block holds one compound with its values, some of them ahead of it.

Biological target: T1, CFTR (Homo sapiens, UniProt P13569, DEL508-508)
T1 construct: endogenous in cells; host or cells: primary human bronchial epithelial cells from CF subjects (F508del/MF-HBE), differentiated at air-liquid interface
T1 sequence (P13569 with tags, fused parts or gaps DEL508-508): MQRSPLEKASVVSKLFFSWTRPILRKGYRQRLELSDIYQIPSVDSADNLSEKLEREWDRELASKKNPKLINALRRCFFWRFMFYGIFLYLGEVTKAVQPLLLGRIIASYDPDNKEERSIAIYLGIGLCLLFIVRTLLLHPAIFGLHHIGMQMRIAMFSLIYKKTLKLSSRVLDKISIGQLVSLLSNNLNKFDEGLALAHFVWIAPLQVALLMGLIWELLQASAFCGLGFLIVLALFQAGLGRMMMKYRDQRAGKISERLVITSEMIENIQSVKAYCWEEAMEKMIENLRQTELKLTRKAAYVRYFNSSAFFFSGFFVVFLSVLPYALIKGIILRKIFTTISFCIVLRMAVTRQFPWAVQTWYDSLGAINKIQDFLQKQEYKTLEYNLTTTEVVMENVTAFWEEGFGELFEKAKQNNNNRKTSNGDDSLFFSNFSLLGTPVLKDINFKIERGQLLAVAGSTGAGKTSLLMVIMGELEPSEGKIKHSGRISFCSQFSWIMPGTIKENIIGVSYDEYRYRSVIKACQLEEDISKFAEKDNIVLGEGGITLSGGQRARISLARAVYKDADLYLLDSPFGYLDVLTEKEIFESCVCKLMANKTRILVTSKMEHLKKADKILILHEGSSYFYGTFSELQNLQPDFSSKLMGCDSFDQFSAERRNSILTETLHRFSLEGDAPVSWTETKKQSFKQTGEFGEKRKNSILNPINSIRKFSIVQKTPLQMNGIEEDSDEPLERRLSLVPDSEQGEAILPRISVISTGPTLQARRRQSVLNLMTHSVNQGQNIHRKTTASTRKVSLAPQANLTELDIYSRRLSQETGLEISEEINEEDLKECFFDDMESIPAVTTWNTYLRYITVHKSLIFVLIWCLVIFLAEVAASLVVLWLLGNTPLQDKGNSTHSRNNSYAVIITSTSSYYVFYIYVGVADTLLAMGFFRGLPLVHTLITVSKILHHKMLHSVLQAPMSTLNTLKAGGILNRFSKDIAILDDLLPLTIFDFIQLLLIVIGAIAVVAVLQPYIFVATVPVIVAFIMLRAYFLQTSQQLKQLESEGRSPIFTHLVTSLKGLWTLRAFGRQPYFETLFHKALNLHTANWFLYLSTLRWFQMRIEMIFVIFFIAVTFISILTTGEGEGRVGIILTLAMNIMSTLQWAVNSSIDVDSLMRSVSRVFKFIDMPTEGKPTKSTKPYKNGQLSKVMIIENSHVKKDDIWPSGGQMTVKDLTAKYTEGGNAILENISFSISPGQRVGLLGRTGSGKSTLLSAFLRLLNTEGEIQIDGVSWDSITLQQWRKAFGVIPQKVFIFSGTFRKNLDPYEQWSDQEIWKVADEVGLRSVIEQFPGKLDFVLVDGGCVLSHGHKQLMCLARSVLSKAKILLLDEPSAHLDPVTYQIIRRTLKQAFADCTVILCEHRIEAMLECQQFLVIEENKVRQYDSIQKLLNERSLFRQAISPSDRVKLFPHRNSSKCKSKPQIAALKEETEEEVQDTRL
Test: HBE assay: Ussing chamber assay of CFTR-mediated short-circuit currents
Type: cell-based
Details: for pEC50: read-out: HBE EC50
Summary of the method: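 CFTR-mediated Isc (μA/cm²) equals the peak response to apical 20 μM forskolin minus the residual after a 20 μM each BPO/GlyH-101/CFTR inhibitor 172 cocktail, recorded in Ussing chambers at Vhold 0 mV, 37 °C, pH 7.4, with 30 μM apical amiloride. Cells were F508del/MF HBE cultures preincubated 18-24 h with corrector (concentration range or 10 μM) plus 1 μM ivacaftor in 20% human serum.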

[1] = Table 11, read-out: HBE Max Activity (%)
[2] = Table 12, read-out: HBE Max Activity (%)
[3] = HBE assay, read-out: HBE Max activity (%)
[4] = Table 13, at 10 μM, read-out: HBE Activity at 10 μM (%)
[5] = HBE assay, 10 μM, read-out: HBE Activity at 10 μM (%)
[6] = Table 13, read-out: HBE Max Activity (%)
[7] = Table 10, at 10 μM, read-out: HBE activity at 10 (μM) (%)
[8] = Table 12, at 10 μM, read-out: HBE Activity at 10 μM (%)
[9] = Table 10, read-out: HBE Max activity (%)

SMILES: Cc1cccc(C)c1-c1cc2nc(n1)NS(=O)(=O)c1cccc(c1)C(=O)N(CC1CCOCC1)[C@H](CC(C)(C)C)CO2 [Compound 820]
pEC50 (Table 11): > 6.00
Emax [1]: > 60%

SMILES: Cc1cccc(C)c1-c1cc2nc(n1)NS(=O)(=O)c1cccc(c1)C(=O)N(Cc1ncc(N(C)C3CC4(CC4)C3)cn1)[C@H](CC(C)(C)C)CO2 [Compound 575]
pEC50 (Table 12): > 6.00
Emax [2]: > 60%

SMILES: Cc1cccc(C)c1-c1cc2nc(n1)NS(=O)(=O)c1cccc(c1)C(=O)N(Cc1cncc(C3CCCCC3)c1)[C@H](CC(C)(C)C)CO2 [Compound 286]
pEC50 (Table 12): > 6.00
Emax [2]: > 60%

SMILES: Cc1cccc(C)c1-c1cc2nc(n1)NS(=O)(=O)c1cccc(c1)C(=O)N(Cc1ccnc(C(C)C)n1)[C@H](CC(C)(C)C)CO2 [Compound 584]
pEC50 (Table 12): > 6.00
Emax [2]: > 60%

SMILES: Cc1cccc(C)c1-c1cc2nc(n1)NS(=O)(=O)c1cccc(c1)C(=O)N(Cc1cc3ccccn3n1)[C@H](CC(C)(C)C)CO2 [Compound 743]
activation at 10 µM (Table 11, at 10 μM, read-out: HBE Activity at 10 μM (%)): < 30%

SMILES: Cc1cccc(C)c1-c1cc2nc(n1)NS(=O)(=O)c1cccc(c1)C(=O)N(CC(=O)NC1CC3(CCC3)C1)[C@H](CC(C)(C)C)CO2 [Compound 171]
activation at 10 µM [4]: > 600%

SMILES: Cc1cccc(C)c1-c1cc2nc(n1)NS(=O)(=O)c1cccc(c1)C(=O)N(CC1CC(N3C[C@@H](C)O[C@@H](C)C3)C1)[C@H](CC(C)(C)C)CO2 (single isomer, unassigned) [Compound 64]
EC50 (HBE EC50 (μM), Table 10): < 1 µM
Emax (read-out: HBE Max activity (%)): > 60%

SMILES: Cc1cccc(C)c1-c1cc2nc(n1)NS(=O)(=O)c1cccc(c1)C(=O)N(CC1CCC(C)(C)CO1)[C@H](CC(C)(C)C)CO2 (single isomer, unassigned) [Compound 23]
pEC50 (Table 11): > 6.00

SMILES: Cc1cccc(C)c1-c1cc2nc(n1)NS(=O)(=O)c1cccc(c1)C(=O)N(Cc1ccccc1OCC(=O)NN)[C@H](CC(C)(C)C)CO2 [Compound 777]
activation at 10 µM [7]: > 60%

SMILES: Cc1cccc(C)c1-c1cc2nc(n1)NS(=O)(=O)c1cccc(c1)C(=O)N(Cc1nc(C3CC3)cs1)[C@H](CC(C)(C)C)CO2 [Compound 701]
activation at 10 µM [8]: > 600%

SMILES: Cc1cccc(C)c1-c1cc2nc(n1)NS(=O)(=O)c1cccc(c1)C(=O)N(Cc1ncc(OC3CCC3)cc1Cl)[C@H](CC(C)(C)C)CO2 [Compound 690]
pEC50 (Table 13): > 6.00
Emax [6]: > 60%

SMILES: Cc1cccc(C)c1-c1cc2nc(n1)NS(=O)(=O)c1cccc(c1)C(=O)N(CC1CCCO1)[C@H](CC(C)(C)C)CO2 (some centres unmarked) [Compound 835]
pEC50 (Table 10): > 6.00
Emax [9]: > 60%

SMILES: CCC(=O)CN1C(=O)c2cccc(c2)S(=O)(=O)Nc2nc(cc(-c3c(C)cccc3C)n2)OC[C@H]1CC(C)(C)C [Compound 259]
activation at 10 µM [4]: > 600%

SMILES: Cc1cccc(C)c1-c1cc2nc(n1)NS(=O)(=O)c1cccc(c1)C(=O)N(Cc1cc(C(C)(C)O)ccn1)[C@H](CC(C)(C)C)CO2 [Compound 812]
pEC50 (Table 11): > 6.00
Emax [1]: > 60%

SMILES: CNC(=O)COc1ccc(CN2C(=O)c3cccc(c3)S(=O)(=O)Nc3nc(cc(-c4c(C)cccc4C)n3)OC[C@H]2CC(C)(C)C)cc1 [Compound 778]
pEC50 (Table 10): > 6.00
Emax [9]: > 60%

SMILES: Cc1cccc(C)c1-c1cc2nc(n1)NS(=O)(=O)c1cccc(c1)C(=O)N(CC(=O)N1CCOCC1)[C@H](CC(C)(C)C)CO2 [Compound 197]
activation at 10 µM [4]: > 600%

SMILES: Cc1cccnc1-c1cccc(CN2C(=O)c3cccc(c3)S(=O)(=O)Nc3nc(cc(-c4c(C)cccc4C)n3)OC[C@H]2CC(C)(C)C)n1 [Compound 591]
activation at 10 µM [8]: > 600%

SMILES: Cc1cccc(C)c1-c1cc2nc(n1)NS(=O)(=O)c1cccc(c1)C(=O)N(Cc1ncc(C(C)(C)C)cn1)[C@H](CC(C)(C)C)CO2 [Compound 815]
pEC50 (Table 11): > 6.00
Emax [1]: > 60%

SMILES: Cc1cccc(C)c1-c1cc2nc(n1)NS(=O)(=O)c1cccc(c1)C(=O)N(Cc1c(C)nn(C(C)(C)C)c1C)[C@H](CC(C)(C)C)CO2 [Compound 482]
activation at 10 µM [7]: > 60%

SMILES: Cc1ccc2c(c1)CCN(C(=O)CN1C(=O)c3cccc(c3)S(=O)(=O)Nc3nc(cc(-c4c(C)cccc4C)n3)OC[C@H]1CC(C)(C)C)C2 [Compound 209]
activation at 10 µM [4]: > 600%

SMILES: Cc1cccc(C)c1-c1cc2nc(n1)NS(=O)(=O)c1cccc(c1)C(=O)N(Cc1cccc(N3CCC[C@H]3C)n1)[C@H](CC(C)C)CO2 [Compound 573]
pEC50 (Table 12): > 6.00
Emax [2]: > 60%

SMILES: Cc1cccc(C)c1-c1cc2nc(n1)NS(=O)(=O)c1cccc(c1)C(=O)N(Cc1nc3ccccn3c1C)[C@H](CC(C)(C)C)CO2 [Compound 700]
activation at 10 µM [8]: > 600%

The next lines start with the values.

pEC50 (HBE assay): > 6.00
Emax [3]: > 60%
SMILES: Cc1cccc(C)c1-c1cc2nc(n1)NS(=O)(=O)c1cccc(c1)C(=O)N(Cc1cccc(N3[C@H](C)CC[C@@H]3C)n1)[C@H](CC(C)(C)C)CO2 (stereo in doubt) [Compound 1401]

activation at 10 µM [4]: > 600%
SMILES: COC(=O)NC1CC2(CC(CN3C(=O)c4cccc(c4)S(=O)(=O)Nc4nc(cc(-c5c(C)cccc5C)n4)OC[C@H]3CC(C)(C)C)C2)C1 (some centres unmarked) [Compound 1001]

activation at 10 µM [5]: > 60%
SMILES: Cc1cccc(C)c1-c1cc2nc(n1)NS(=O)(=O)c1cccc(c1)C(=O)N(Cc1cccc(N(C)C(C)C(C)(C)C)n1)[C@H](CC(C)(C)C)CO2 (some centres unmarked) [Compound 1427]

activation at 10 µM [5]: > 60%
SMILES: COC(=O)Nc1cnc(CN2C(=O)c3cccc(c3)S(=O)(=O)Nc3nc(cc(-c4c(C)cccc4C)n3)OC[C@H]2CC(C)(C)C)nc1 [Compound 1514]

pEC50 (Table 13): > 6.00
Emax [6]: > 60%
SMILES: COC1(C)CCN(c2ccc(CN3C(=O)c4cccc(c4)S(=O)(=O)Nc4nc(cc(-c5c(C)cccc5C)n4)OC[C@H]3CC(C)(C)C)nc2)CC1 [Compound 1059]

activation at 10 µM [5]: > 60%
SMILES: Cc1cccc(C)c1-c1cc2nc(n1)NS(=O)(=O)c1cccc(c1)C(=O)N(Cc1ncc(N3CCC(F)(F)CC3)cn1)[C@H](CC(C)(C)C)CO2 [Compound 1443]

pEC50 (Table 10): > 6.00
Emax [9]: > 60%
SMILES: Cc1cccc(C)c1-c1cc2nc(n1)NS(=O)(=O)c1cccc(c1)C(=O)N(C[C@H]1CC[C@@H](N3CCCC3=O)CC1)[C@H](CC(C)(C)C)CO2 [Compound 910]

pEC50 (Table 12): > 6.00
Emax [2]: > 60%
SMILES: Cc1cccc(C)c1-c1cc2nc(n1)NS(=O)(=O)c1cccc(c1)C(=O)N(Cc1ncc(N3CCC(C(C)(C)C)C3)cn1)[C@H](CC(C)(C)C)CO2 (some centres unmarked) [Compound 875]

pEC50 (Table 13): > 6.00
Emax [6]: > 60%
SMILES: Cc1cccc(C)c1-c1cc2nc(n1)NS(=O)(=O)c1cccc(c1)C(=O)N(Cc1ccc(N3CC4(CCOCC4)C3)cn1)[C@H](CC(C)(C)C)CO2 [Compound 1060]

pEC50 (Table 11): > 6.00
Emax [1]: > 60%
SMILES: COCCN(C)c1ccnc(CN2C(=O)c3cccc(c3)S(=O)(=O)Nc3nc(cc(-c4c(C)cccc4C)n3)OC[C@H]2CC(C)(C)C)c1 [Compound 887]

activation at 10 µM [5]: > 60%
SMILES: CCOc1cnc(CN2C(=O)c3cccc(c3)S(=O)(=O)Nc3nc(cc(-c4c(C)cccc4C)n3)OC[C@H]2CC2(C)CC2)nc1 [Compound 1524]

pEC50 (HBE assay): > 6.00
Emax [3]: > 60%
SMILES: CCOc1cnc(CN2C(=O)c3cccc(c3)S(=O)(=O)Nc3nc(cc(-c4c(C)cccc4C)n3)OC[C@H]2CC(C)(C)C(F)(F)F)nc1 [Compound 1489]

pEC50 (Table 11): > 6.00
Emax [1]: > 60%
SMILES: Cc1cccc(C)c1-c1cc2nc(n1)NS(=O)(=O)c1cccc(c1)C(=O)N(Cc1cnc(N(C)CC(C)(C)C)cn1)[C@H](CC(C)(C)C)CO2 [Compound 899]

pEC50 (Table 11): 4.52 to 5.52
Emax [1]: > 60%
SMILES: Cc1cccc(C)c1-c1cc2nc(n1)NS(=O)(=O)c1cccc(c1)C(=O)N(Cc1cnc(C3CCCC3)cn1)[C@H](CC(C)(C)C)CO2 [Compound 890]
